Data on 27 compounds can be found in ChEMBL document CHEMBL4765254, “Design, synthesis and biological evaluation of 1-alkyl-5/6-(5-oxo-4,5-dihydro-1,2,4-oxadiazol-3-yl)-1H-indole-3-carbonitriles as novel xanthine oxidase inhibitors” (Eur J Med Chem, 2020).

Active and inactive are the calls of the source. The calls are words filed in the database; no cut-off is given here.

T1 sequence (P80457 whole entry): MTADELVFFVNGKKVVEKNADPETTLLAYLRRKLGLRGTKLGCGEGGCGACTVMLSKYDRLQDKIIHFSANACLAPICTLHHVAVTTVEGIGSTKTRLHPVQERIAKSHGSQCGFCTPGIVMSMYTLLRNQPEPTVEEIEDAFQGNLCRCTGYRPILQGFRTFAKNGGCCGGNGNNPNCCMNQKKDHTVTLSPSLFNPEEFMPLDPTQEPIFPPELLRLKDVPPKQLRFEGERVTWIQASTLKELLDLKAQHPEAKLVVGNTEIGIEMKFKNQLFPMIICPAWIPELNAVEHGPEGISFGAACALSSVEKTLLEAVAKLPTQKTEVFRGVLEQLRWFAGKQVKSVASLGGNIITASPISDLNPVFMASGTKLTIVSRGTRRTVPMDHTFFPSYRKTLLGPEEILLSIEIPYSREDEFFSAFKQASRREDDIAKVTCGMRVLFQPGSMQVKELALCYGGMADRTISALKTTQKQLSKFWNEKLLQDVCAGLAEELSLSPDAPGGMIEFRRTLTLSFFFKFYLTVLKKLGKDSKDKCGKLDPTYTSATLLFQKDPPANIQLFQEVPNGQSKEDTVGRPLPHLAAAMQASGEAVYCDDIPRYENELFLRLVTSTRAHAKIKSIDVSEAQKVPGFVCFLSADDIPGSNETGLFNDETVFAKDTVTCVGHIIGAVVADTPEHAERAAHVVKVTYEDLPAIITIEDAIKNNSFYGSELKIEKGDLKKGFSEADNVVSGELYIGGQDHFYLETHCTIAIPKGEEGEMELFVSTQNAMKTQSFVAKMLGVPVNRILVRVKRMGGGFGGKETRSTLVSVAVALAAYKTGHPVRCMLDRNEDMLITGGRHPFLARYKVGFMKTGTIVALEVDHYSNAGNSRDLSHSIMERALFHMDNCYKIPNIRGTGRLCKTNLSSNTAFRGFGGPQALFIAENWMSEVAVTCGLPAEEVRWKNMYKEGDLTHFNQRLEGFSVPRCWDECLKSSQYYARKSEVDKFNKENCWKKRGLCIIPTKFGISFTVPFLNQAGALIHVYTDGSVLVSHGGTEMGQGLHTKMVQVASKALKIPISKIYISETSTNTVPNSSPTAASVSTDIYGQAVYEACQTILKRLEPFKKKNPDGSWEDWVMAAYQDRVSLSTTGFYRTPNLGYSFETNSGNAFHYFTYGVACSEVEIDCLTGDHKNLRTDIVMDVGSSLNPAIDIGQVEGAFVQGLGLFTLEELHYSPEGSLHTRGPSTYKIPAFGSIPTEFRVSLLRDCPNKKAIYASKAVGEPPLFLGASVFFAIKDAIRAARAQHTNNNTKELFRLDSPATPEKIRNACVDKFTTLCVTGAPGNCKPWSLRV

The first assay relates to Rattus norvegicus. Nature of the assay: Hypouricemic activity in Sprague-Dawley rat model of Potassium oxonate-induced acute hyperuricemia assessed as decrease in serum urate level at 10 mg/kg, ig administered 1 hr after potassium oxonate treatment and measured after 8 hrs. The class given is functional, organism-based.
Conditions: not given
Turning to `N#Cc1cn(C2CCCC2)c2ccc(-c3noc(=O)[nH]3)cc12`, the outcome was Active.

Another assay concerns the target T1, Xanthine dehydrogenase/oxidase (Bos taurus, UniProt P80457). Nature of the assay: Inhibition of bovine xanthine oxidase assessed as reduction in uric acid formation at 10 uM using xanthine as substrate preincubated for 25 mins followed by substrate addition measured at first 2 mins by spectrophotometric analysis relative to control. As to conditions: cattle, time 27 min.
As for `CC(C)n1ccc2cc(-c3noc(=O)[nH]3)ccc21`, the inhibition at 10 µM was less than 50%.

With `O=c1[nH]c(-c2ccc3c(ccn3C3CCCC3)c2)no1`, the inhibition at 10 µM was less than 50%.

A further assay addresses T1, Xanthine dehydrogenase/oxidase. Nature of the assay: Inhibition of bovine xanthine oxidase assessed as reduction in uric acid formation using xanthine as substrate preincubated for 25 mins followed by substrate addition measured at first 2 mins by spectrophotometric analysis.
Conditions: not given
On to `COc1ccc(Cn2cc(C#N)c3cc(-c4noc(=O)[nH]4)ccc32)cc1`, for which the IC50 was 1020 nM.

Turning to `CC(C)CCn1cc(C#N)c2cc(-c3noc(=O)[nH]3)ccc21`, the IC50 worked out at 1020 nM.

Take `Cn1cc(C#N)c2cc(-c3noc(=O)[nH]3)ccc21`: the IC50 came to 5410 nM.

For `Cc1cccc(Cn2cc(C#N)c3cc(-c4noc(=O)[nH]4)ccc32)c1`, the concentration for half-maximal inhibition (IC50) amounted to 2160 nM.

As for `N#Cc1cn(CC2CC2)c2ccc(-c3noc(=O)[nH]3)cc12`, the IC50 is 880 nM.

As to `Cc1ccc(Cn2cc(C#N)c3ccc(-c4noc(=O)[nH]4)cc32)cc1`, the IC50 came out at 1840 nM.

In the case of `CC(C)n1cc(C#N)c2ccc(-c3noc(=O)[nH]3)cc21`, the IC50 came to 1800 nM.

With `CC(C)(C)c1ccc(Cn2cc(C#N)c3cc(-c4noc(=O)[nH]4)ccc32)cc1`, the concentration for half-maximal inhibition (IC50) turned out to be 1440 nM.

As for `N#Cc1cn(Cc2cccc(Br)c2)c2ccc(-c3noc(=O)[nH]3)cc12`, the IC50 was 2600 nM.

Consider `N#Cc1cn(Cc2cccc(F)c2)c2ccc(-c3noc(=O)[nH]3)cc12`, for which the IC50 was 3600 nM.

Consider `Cc1ccc(Cn2cc(C#N)c3cc(-c4noc(=O)[nH]4)ccc32)cc1`, for which the IC50 worked out at 1140 nM.

Consider `CC(C)n1cc(C#N)c2cc(-c3noc(=O)[nH]3)ccc21`, for which the IC50 worked out at 410 nM.

Turning to `COc1cccc(Cn2cc(C#N)c3cc(-c4noc(=O)[nH]4)ccc32)c1`, the IC50 was 1700 nM.

Turning to `CC(C)CCn1cc(C#N)c2ccc(-c3noc(=O)[nH]3)cc21`, the half-maximal inhibitory concentration (IC50) amounted to 6560 nM.

On to `CC(C)Cn1cc(C#N)c2cc(-c3noc(=O)[nH]3)ccc21`, for which the IC50 is 1090 nM.

Turning to `N#Cc1cn(Cc2ccccc2)c2ccc(-c3noc(=O)[nH]3)cc12`, the IC50 was determined as 1720 nM.

`N#Cc1cn(Cc2ccc(F)cc2)c2ccc(-c3noc(=O)[nH]3)cc12`: the IC50 was found to be 1710 nM.

In the case of `N#Cc1cn(Cc2ccc(Cl)cc2)c2ccc(-c3noc(=O)[nH]3)cc12`, the half-inhibitory concentration (IC50) turned out to be 2400 nM.

As to `N#Cc1c[nH]c2ccc(-c3noc(=O)[nH]3)cc12`, the IC50 was found to be 4130 nM.

With `N#Cc1cn(C2CCCC2)c2cc(-c3noc(=O)[nH]3)ccc12`, the IC50 worked out at 820 nM.

With `CC(C)=CCn1cc(C#N)c2cc(-c3noc(=O)[nH]3)ccc21`, the IC50 came out at 1240 nM.

Consider `N#Cc1cn(Cc2cccc(Cl)c2)c2ccc(-c3noc(=O)[nH]3)cc12`, for which the IC50 turned out to be 2930 nM.

For the compound `N#Cc1cn(Cc2ccc(Br)cc2)c2ccc(-c3noc(=O)[nH]3)cc12`, the IC50 worked out at 2070 nM.

For the compound `N#Cc1cn(CC2CCCCC2)c2ccc(-c3noc(=O)[nH]3)cc12`, the IC50 is 2860 nM.

Another assay has as its system Rattus norvegicus. Nature of the assay: Hypouricemic activity in Sprague-Dawley rat model of Potassium oxonate-induced acute hyperuricemia assessed as decrease in serum uric acid level at 10 mg/kg, ig administered 1 hr after potassium oxonate treatment and measured after 3 hrs relative to control. In kind it is functional. To be noted: time 4 hrs. Also on record: scale not given: the % may be the effect or the level left.
Turning to `N#Cc1cn(C2CCCC2)c2ccc(-c3noc(=O)[nH]3)cc12`, the Activity is recorded as 20.8%.

In the next assay the target is T1, Xanthine dehydrogenase/oxidase. Nature of the assay: Mixed type inhibition of bovine xanthine oxidase assessed as inhibitory constant using xanthine as substrate preincubated for 25 mins followed by substrate addition measured at first 2 mins by spectrophotometry based Lineweaver-Burk plot analysis.
Conditions: not given
`N#Cc1cn(C2CCCC2)c2ccc(-c3noc(=O)[nH]3)cc12`: the Ki came to 138 nM.

The subject of a further assay is Rattus norvegicus. As to the kind of experiment: Hypouricemic activity in Sprague-Dawley rat model of Potassium oxonate-induced acute hyperuricemia assessed as percentage decrease in serum uric acid AUC (1 to 8 hrs) at 10 mg/kg, ig administered 1 hr after potassium oxonate treatment and measured after 8 hrs relative to control.
Conditions: not given
Details: scale not given: the % may be the effect or the level left. The class given is functional.
Regarding `N#Cc1cn(C2CCCC2)c2ccc(-c3noc(=O)[nH]3)cc12`, the Activity is listed as 12.8%.
